This note sets out measurements from patent US12180226B2, “Spirotricycle RIPK1 inhibitors and methods of uses thereof” (Merck Sharp & Dohme LLC, priority 2021, dated 2024).

The assay has as its target RIPK1 (recombinant GST-RIPK1 kinase domain, residues 1-327) (Homo sapiens (Human), UniProt Q13546). The experiment in a line: RIPK1-ADP-Glo Enzymatic Assay. The assay is classed as biochemical. To be noted: ADP-Glo; 25 nM GST-RIPK1, 300 μM ATP; assay lower limit ~25 nM; read-out: RIPK1 V0 Ec50. In outline:
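Enzyme from baculovirus-infected Sf21 cells, 25 nM final, was pre-incubated 30 min at ambient temperature with compound (ten-point, 1:3 dilution from 100000 nM, 1% DMSO), then reacted 150 min with 300 μM ATP and 3 μM dephosphorylated MBP. ADP was read by luminescence; EC50 from four-parameter fit.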

Counter-ions that a name gives are not always drawn.

RIPK1 (recombinant GST-RIPK1 kinase domain, residues 1-327), sequence (Q13546 1-327): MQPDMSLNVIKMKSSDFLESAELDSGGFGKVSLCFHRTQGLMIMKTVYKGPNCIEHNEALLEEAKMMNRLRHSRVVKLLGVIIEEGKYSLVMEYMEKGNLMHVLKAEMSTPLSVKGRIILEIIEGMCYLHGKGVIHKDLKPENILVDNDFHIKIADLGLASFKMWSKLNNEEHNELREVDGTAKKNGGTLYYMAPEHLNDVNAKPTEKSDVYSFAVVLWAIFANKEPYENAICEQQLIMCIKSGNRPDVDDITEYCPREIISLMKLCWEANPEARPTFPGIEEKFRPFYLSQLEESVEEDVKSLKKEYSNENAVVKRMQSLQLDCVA

Broadly, the EC50 is the midpoint of the concentration-response curve. `O=C1N2[C@@H](CC[C@H]2c2cnccn2)OC12CCN(c1ccnc3c(F)cnn13)CC2` [Example 4.143, (5′S,7a′R)-1-(3-fluoropyrazolo[1,5-a]pyrimidin-7-yl)-5′-(pyrazin-2-yl)tetrahydro-3′H-spiro[piperidine-4,2′-pyrrolo[2,1-b] [1,3]oxazol]-3′-one]: the EC50 is below 0.025 µM.

For the molecule `Cc1onc(C(=O)N2CCC3(CC2)O[C@@H]2CC[C@@H](c4cc(F)cc(F)c4)N2C3=O)c1C` [Example 6.57, (5′S,7a′R)-5′-(3,5-difluorophenyl)-1-(4,5-dimethyl-1,2-oxazole-3-carbonyl) tetrahydro-3′H-spiro [piperidine-4,2′-pyrrolo[2,1-b][1,3]-oxazol]-3′-one], the EC50 stood at 0.426 µM.

Consider `O=C1N2C(=NC13CCN(c1cc(F)ccn1)CC3)CC[C@H]2c1cc(F)cc(F)c1` [Example 11.1], for which the concentration giving a half-maximal response (EC50) was 0.885 µM.

As to `N#Cc1ccc(N2CCC3(CC2)O[C@@H]2CC[C@@H](c4cncc(F)c4)N2C3=O)n2nccc12` [Example 14.3, 7-((5′S,7a′R)-5′-(5-fluoropyridin-3-yl)-3′-oxotetrahydro-3′H-spiro[piperidine-4,2′-pyrrolo[2,1-b]oxazol]-1-yl)pyrazolo[1,5-a]pyridine-4-carbonitrile], the concentration giving a half-maximal response (EC50) is below 0.025 µM.

For the molecule `O=C(c1ccccc1)N1CCC2(CC1)S[C@@H]1CC[C@@H](c3ccccc3)N1C2=O` [Example 1.23, (5′S,7a′R)-1-(benzenecarbonyl)-5′-phenyltetrahydro-3′H-spiro[piperidine-4,2′-pyrrolo[2,1-b] [1,3]thiazol]-3′-one], the concentration for a half-maximal effect (EC50) turned out to be 0.0261 µM.

On to `O=C1N2[C@@H](CC[C@H]2c2ccc(F)cc2)OC12CCN(c1ccnc3c(F)cnn13)CC2` [Example 4.124, (5′S,7a′R)-5′-(4-fluorophenyl)-1-(3-fluoropyrazolo[1,5-a]pyrimidin-7-yl)tetrahydro-3′H-spiro[piperidine-4,2′-pyrrolo[2,1-b] [1,3]oxazol]-3′-one], for which the half-maximal effective concentration (EC50) was below 0.025 µM.

On to `N#Cc1cncc(N2CCC3(CC2)O[C@@H]2CC[C@@H](c4ccccc4)N2C3=O)n1` [Example 4.7, 6-[(5′S,7a′R)-3′-oxo-5′-phenyltetrahydro-1H,3′H-spiro[piperidine-4,2′-pyrrolo[2,1-b] [1,3]oxazol]-1-yl]pyrazine-2-carbonitrile], for which the 50% effective concentration (EC50) worked out at 0.113 µM.

Take `N#Cc1ccc(N2CCC3(CC2)O[C@@H]2CC[C@@H](c4cc(F)cc(F)c4)N2C3=O)nc1` [Example 4.44, 6-[(5′S,7a′R)-5′-(3,5-difluorophenyl)-3′-oxotetrahydro-1H,3′H-spiro[piperidine-4,2′-pyrrolo[2,1-b] [1,3]oxazol]-1-yl]pyridine-3-carbonitrile]: the concentration giving a half-maximal response (EC50) was below 0.025 µM.

As for `O=C(c1cnnn1-c1cccnc1)N1CCC2(CC1)O[C@@H]1CC[C@@H](c3cc(F)cc(F)c3)N1C2=O` [Example 6.30, (5′S,7a′R)-5′-(3,5-difluorophenyl)-1-[1-(pyridin-3-yl)-1H-1,2,3-triazole-5-car-bonyl]tetrahydro-3′H-spiro[piperidine-4,2′-pyrrolo[2,1-b][1,3]oxazol]-3′-one], the EC50 was 0.208 µM.

Regarding `N#Cc1ccnc(N2CCC3(CC2)O[C@@H]2CC[C@@H](c4cc(F)cc(F)c4)N2C3=O)n1` [Example 4.12, 2-[(5′S,7a′R)-5′-(3,5-difluorophenyl)-3′-oxotetrahydro-1H,3′H-spiro[piperidine-4,2′-pyrrolo[2,1-b] [1,3]oxazol]-1-yl]pyrimidine-4-carbonitrile], the EC50 is below 0.025 µM.

For the molecule `O=C1N2[C@@H](CC[C@H]2c2cc(F)cc(F)c2)OC12CCN(c1ccc(C3CCC3)c3ccnn13)CC2` [Example 18.1, (5′S,7a′R)-1-(4-Cyclobutylpyrazolo[1,5-a]pyridin-7-yl)-5′-(3,5-difluorophenyl)tetrahydro-3′H-spiro[piperidine-4,2′-pyrrolo[2,1-b]oxazol]-3′-one, TFA salt], the EC50 amounted to 0.159 µM.
